Data: patent publication US11253524B2 (Gilead Sciences, Inc., priority 2018, dated 2022)

Legend:
MRP2 (ABCC2) = molecular target: T1, MRP2 (ABCC2) (Homo sapiens, UniProt Q92887); experiment: in vitro; type: biochemical; conditions: human
T1 construct: host or cells: membrane vesicle preparations
Procedure: Cells and experimental conditions for the transporter inhibition assays are summarized below in Table 7. […] M15, M20, and M23 were prepared according to the procedures described herein. All other materials were purchased by SOLVO Biotechnology and experiments were conducted according to SOLVO Standard Operating Procedures (SOPs) of its certified ISO 9001:2008 system. Lot and product information was recorded by SOLVO Biotechnology.
Test compounds and positive control was incubated with membrane vesicle preparations (total protein: 50 μg/well) and the model substrate in the absence or presence of ATP. Reaction mixtures were preincubated for 15 minutes at 37° C. Reactions were started by the addition of 25 μL of 12 mM MgATP or AMP assay buffer (for background controls) preincubated separately. Reactions were stopped after 5 min by the addition of 200 μL of ice-cold washing buffer and immediate filtration via glass fiber filters mounted to a 96-well plate (filter plate). The filters were washed, dried and the amount of substrate inside the filtered vesicles determined by liquid scintillation. A positive control inhibitor was tested in parallel. Control membranes lacking transporter expression were used as negative control. All assays were performed in duplicate.
Fractional transport activities were calculated from the following equation: Activity %=(A−B)/(C−D)×100 where A is translocated amount of substrate in the presence of TA and ATP, B is translocated amount of substrate in the presence of TA, C is translocated amount of substrate in the presence of solvent and ATP, and D is translocated amount of substrate in the presence of solvent. IC50 Determination in Transporter Assays
IC50 is defined as the test article concentration needed to inhibit the maximal transporter specific transport by 50%. IC50 values were calculated using non-linear fitting of % inhibition versus concentration to a sigmoidal curve with a variable Hill Coefficient using GraphPad Prism 5 (GraphPad Software Inc., San Diego, Calif.). If the % inhibition was less than 50% at the highest concentration tested, the IC50 was not determined. No inhibition observed (NIO) is reported for relative inhibition results <20% and no concentration dependent transport observed up to the highest concentration tested.

[1] = molecular target: T2, human hepatic microsomal UGT1A1 (Homo sapiens, UniProt P22309); experiment: biochemical
T2 sequence (P22309 26-533): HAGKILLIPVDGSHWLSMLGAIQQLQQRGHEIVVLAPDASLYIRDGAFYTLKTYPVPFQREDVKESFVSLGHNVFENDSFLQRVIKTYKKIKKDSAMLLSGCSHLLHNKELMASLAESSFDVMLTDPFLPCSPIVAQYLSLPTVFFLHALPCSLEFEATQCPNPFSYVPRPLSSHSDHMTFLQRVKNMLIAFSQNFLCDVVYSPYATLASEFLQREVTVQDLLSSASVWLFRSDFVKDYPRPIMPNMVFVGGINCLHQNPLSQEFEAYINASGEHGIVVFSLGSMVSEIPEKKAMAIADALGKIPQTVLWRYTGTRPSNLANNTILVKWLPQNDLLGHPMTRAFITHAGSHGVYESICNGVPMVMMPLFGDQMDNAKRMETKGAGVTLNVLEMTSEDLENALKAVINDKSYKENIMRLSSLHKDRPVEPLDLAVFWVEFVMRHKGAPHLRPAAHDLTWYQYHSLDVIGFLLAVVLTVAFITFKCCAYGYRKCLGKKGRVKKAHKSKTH
Procedure: The conditions for the assay were determined to be linear with respect to microsomal protein concentration and incubation time. […] Microsomal UGT1A1 activity was determined in duplicate. […] Diluted microsomal fraction was incubated on ice for 15 minutes with alamethicin, magnesium chloride and SACLAC. Substrate and inhibitor were then added and the mixture warmed to 37° C. for 0.5 minute. The reaction was initiated by the addition of UDP glucuronic acid in potassium phosphate buffer. The incubation continued at 37° C. with shaking and no light exposure for 2 minutes. Reactions were terminated by addition of one volume of 200 mM ascorbic acid in methanol, containing 200 nM 2-(N-(2-ethylphenyl)methylsulfonamido)-N-(2-(pyridin-2-ylthio)ethyl)acetamide as the internal standard.
A Shimadzu UFLC XR UPLC system was used for analysis. The column used was a Thermo-Hypersil Gold 1.9 μm C18 column (30×2.1 mm) held at 60° C. Mobile phases were; A: water containing 0.1% (v/v) formic acid, and B: acetonitrile containing 0.1% (v/v) formic acid, pumped at 0.7 mL/minute. Elution was achieved by a series of linear gradients over 2 minutes. The mass spectrometer was an Applied Biosciences SCIEX QTRAP 5500 triple quadrupole mass spectrometer with an electrospray interface operating in positive ion mode. Quantification was by metabolite/internal standard peak area ratio (PAR).
MS/MS transitions ([M+H]+) of m/z 761.2/475.1 and 937.2/475.1 for the monoglucuronide and diglucuronide, respectively. The PAR values for the two monoglucuronides were combined for quantification.
Reaction velocities were calculated from the rates of formation of the metabolites and were compared to those seen with the vehicle control (100% activity). IC50 values were calculated by non-linear regression using GraphPad Prism 7.03 and a sigmoidal three parameter inhibition model. […] During the testing period the inhibitory potency of atazanavir was determined four times, with each concentration tested in duplicate in each determination. The data from all runs were pooled and a global fit performed to determine the lower plateau value. […] For atazanavir, the IC50 values from the four duplicate runs were combined to generate a summary geometric mean and multiplicative standard deviation for this positive control inhibitor.

[2] = substrate: C=CC1=C(C)/C(=C/c2[nH]c(Cc3[nH]c(/C=C4\NC(=O)C(C)=C4C=C)c(C)c3CCC(=O)O)c(CCC(=O)O)c2C)NC1=O; experiment: cells, lysate or membranes named; conditions: other: under the assay conditions; pH 7.4

T1 sequence (Q92887 whole entry): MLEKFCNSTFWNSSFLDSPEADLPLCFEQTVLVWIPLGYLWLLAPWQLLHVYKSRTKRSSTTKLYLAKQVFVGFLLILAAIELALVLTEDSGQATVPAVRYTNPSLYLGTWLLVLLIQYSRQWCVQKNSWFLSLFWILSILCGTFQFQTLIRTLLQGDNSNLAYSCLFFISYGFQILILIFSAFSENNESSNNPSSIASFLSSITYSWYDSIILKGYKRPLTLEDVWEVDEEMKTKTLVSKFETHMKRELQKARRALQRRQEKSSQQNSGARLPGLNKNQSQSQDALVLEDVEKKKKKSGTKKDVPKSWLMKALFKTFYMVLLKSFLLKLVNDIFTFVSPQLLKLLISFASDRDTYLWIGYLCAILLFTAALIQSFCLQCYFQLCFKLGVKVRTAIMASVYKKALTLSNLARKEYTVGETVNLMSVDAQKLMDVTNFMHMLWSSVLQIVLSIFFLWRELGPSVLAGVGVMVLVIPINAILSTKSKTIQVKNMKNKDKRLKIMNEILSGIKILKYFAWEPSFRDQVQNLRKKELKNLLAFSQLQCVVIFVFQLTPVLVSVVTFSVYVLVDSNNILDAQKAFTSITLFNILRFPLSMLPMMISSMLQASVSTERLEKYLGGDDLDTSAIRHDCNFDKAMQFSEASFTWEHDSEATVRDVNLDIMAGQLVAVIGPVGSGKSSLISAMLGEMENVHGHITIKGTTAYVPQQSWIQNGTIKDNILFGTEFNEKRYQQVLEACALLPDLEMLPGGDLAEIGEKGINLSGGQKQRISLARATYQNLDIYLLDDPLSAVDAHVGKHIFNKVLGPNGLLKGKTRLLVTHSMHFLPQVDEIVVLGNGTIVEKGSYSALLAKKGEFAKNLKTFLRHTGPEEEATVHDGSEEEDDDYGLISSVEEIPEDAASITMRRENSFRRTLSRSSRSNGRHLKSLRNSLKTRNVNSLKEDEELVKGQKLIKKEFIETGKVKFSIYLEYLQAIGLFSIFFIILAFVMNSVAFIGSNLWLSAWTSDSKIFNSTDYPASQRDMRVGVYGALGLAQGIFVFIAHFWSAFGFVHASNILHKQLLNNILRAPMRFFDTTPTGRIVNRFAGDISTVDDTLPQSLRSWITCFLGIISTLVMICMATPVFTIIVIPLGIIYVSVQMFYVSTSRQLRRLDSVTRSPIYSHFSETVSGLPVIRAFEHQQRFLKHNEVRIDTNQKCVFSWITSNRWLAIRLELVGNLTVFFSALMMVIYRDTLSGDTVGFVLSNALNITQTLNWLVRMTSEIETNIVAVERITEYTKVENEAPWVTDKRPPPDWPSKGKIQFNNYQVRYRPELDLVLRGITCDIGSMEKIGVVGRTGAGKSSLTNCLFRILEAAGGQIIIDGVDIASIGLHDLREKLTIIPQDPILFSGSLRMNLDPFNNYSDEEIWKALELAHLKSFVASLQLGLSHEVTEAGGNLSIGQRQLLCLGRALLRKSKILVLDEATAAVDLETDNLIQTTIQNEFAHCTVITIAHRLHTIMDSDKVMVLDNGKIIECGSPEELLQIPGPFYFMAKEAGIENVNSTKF

Question: Which inhibition at 5 min, 200 µM (MRP2 (ABCC2)) does the source give for `CCc1oc2ccccc2c1C(=O)c1cc(Br)c(O)c(Br)c1` [benzbromarone, reference compound] here?
Answer: ≥ 99%

Question: For `COC(=O)N[C@H](C(=O)N[C@@H](Cc1ccccc1)[C@@H](O)CN(Cc1ccc(-c2ccccn2)cc1)NC(=O)[C@@H](NC(=O)OC)C(C)(C)C)C(C)(C)C` [atazanavir, reference compound], which IC50 [1] is on record?
Answer: 1200 nM

Question: What about the “Lower plateau value, activity remaining (global best fit)” value ([1]; pooled data of four runs, standard error 2.94%) of the same molecule?
Answer: 10.96%

B1: human hepatic microsomal UGT1A1 (Homo sapiens) (protein)
chain: HAGKILLIPVDGSHWLSMLGAIQQLQQRGHEIVVLAPDASLYIRDGAFYTLKTYPVPFQREDVKESFVSLGHNVFENDSFLQRVIKTYKKIKKDSAMLLSGCSHLLHNKELMASLAESSFDVMLTDPFLPCSPIVAQYLSLPTVFFLHALPCSLEFEATQCPNPFSYVPRPLSSHSDHMTFLQRVKNMLIAFSQNFLCDVVYSPYATLASEFLQREVTVQDLLSSASVWLFRSDFVKDYPRPIMPNMVFVGGINCLHQNPLSQEFEAYINASGEHGIVVFSLGSMVSEIPEKKAMAIADALGKIPQTVLWRYTGTRPSNLANNTILVKWLPQNDLLGHPMTRAFITHAGSHGVYESICNGVPMVMMPLFGDQMDNAKRMETKGAGVTLNVLEMTSEDLENALKAVINDKSYKENIMRLSSLHKDRPVEPLDLAVFWVEFVMRHKGAPHLRPAAHDLTWYQYHSLDVIGFLLAVVLTVAFITFKCCAYGYRKCLGKKGRVKKAHKSKTH
Question: With B1 as the molecule, how does the Km [2] read?
Answer: 0.98 µM
